Measured values published in ChEMBL document CHEMBL3885861, “Open TG-GATES”.

Organism: Rattus norvegicus
Assay: Open TG-GATES - Regimen: Daily Repeat
Format: toxicity, organism-based, Sprague-Dawley
Design: regimen Daily Repeat, gender Male, age 6 weeks
Conditions: in vivo, po, 100 mg/kg, route gavage, dose level Middle; for APTT / Bas / Eos / Fbg / Hb / Ht / Lym / MCH / MCHC / MCV / Mono / Neu / PT / Plat / RBC / Ret / WBC: tissue Blood; for KIDNEY_L / KIDNEY_R / KIDNEY_TOTAL: tissue Kidney; for LIVER: tissue Liver; for A/G / ALP / ALT / AST / BUN / CRE / Ca / Cl / DBIL / GLC / IP / K / LDH / Na / PL / RALB / TBIL / TC / TG / TP / gamma-GTP: tissue Plasma

SMILES: ClC(Cl)(Cl)Cl [CARBON TETRACHLORIDE]
- TERMINAL_BW (72 h, time 3 day): 216.4 g
- APTT (72 h, time 3 day): 20.1 s
- Bas (72 h, time 3 day): 0%
- Eos (72 h, time 3 day): 1%
- Fbg (72 h, time 3 day): 220 mg/dL
- Hb (72 h, time 3 day): 13.9 g/dL
- Ht (72 h, time 3 day): 40.9%
- Lym (72 h, time 3 day): 75%
- MCH (72 h, time 3 day): 21.3 pg
- MCHC (72 h, time 3 day): 34%
- MCV (72 h, time 3 day): 62.6 fL
- Mono (72 h, time 3 day): 3.4%
- Neu (72 h, time 3 day): 19.6%
- PT (72 h, time 3 day): 12.6 s
- Plat (72 h, time 3 day): 123.3 x10_4/uL
- RBC (72 h, time 3 day): 653.4 x10_4/ul
- Ret (72 h, time 3 day): 5.6%
- WBC (72 h, time 3 day): 95 x10_2/uL
- KIDNEY_L (72 h, time 3 day): 0.9 g
- KIDNEY_R (72 h, time 3 day): 0.9 g
- KIDNEY_TOTAL (72 h, time 3 day): 1.8 g
- LIVER (72 h, time 3 day): 10.9 g
- A/G (72 h, time 3 day): 1.5
- ALP (72 h, time 3 day): 1153 IU/L
- ALT (72 h, time 3 day): 68.6 IU/L
- AST (72 h, time 3 day): 164.4 IU/L
- BUN (72 h, time 3 day): 13 mg/dL
- CRE (72 h, time 3 day): 0.4 mg/dL
- Ca (72 h, time 3 day): 10.9 mg/dL
- Cl (72 h, time 3 day): 103.4 meq/L
- DBIL (72 h, time 3 day): 0.066 mg/dL
- GLC (72 h, time 3 day): 184.4 mg/dL
- IP (72 h, time 3 day): 7.3 mg/dL
- K (72 h, time 3 day): 4 meq/L
- LDH (72 h, time 3 day): 279.4 IU/L
- Na (72 h, time 3 day): 140 meq/L
- PL (72 h, time 3 day): 132.2 mg/dL
- RALB (72 h, time 3 day): 3.2 g/dL
- TBIL (72 h, time 3 day): 0.1 mg/dL
- TC (72 h, time 3 day): 61.6 mg/dL
- TG (72 h, time 3 day): 30 mg/dL
- TP (72 h, time 3 day): 5.4 g/dL
- gamma-GTP (72 h, time 3 day): 1.4 IU/L
- TERMINAL_BW ([…], time 7 day): 247.4 g
- TERMINAL_BW ([…], time 14 day): 301.8 g
- TERMINAL_BW ([…], time 28 day): 377.7 g
- APTT ([…], time 7 day): 19.9 s
- Bas ([…], time 7 day): 0%
- Eos ([…], time 7 day): 1%
- Fbg ([…], time 7 day): 229.6 mg/dL
- Hb ([…], time 7 day): 13.9 g/dL
- Ht ([…], time 7 day): 40.5%
- Lym ([…], time 7 day): 83.4%
- MCH ([…], time 7 day): 21.7 pg
- MCHC ([…], time 7 day): 34.4%
- MCV ([…], time 7 day): 63 fL
- Mono ([…], time 7 day): 3%
- Neu ([…], time 7 day): 12.8%
- PT ([…], time 7 day): 12.1 s
- Plat ([…], time 7 day): 112.3 x10_4/uL
- RBC ([…], time 7 day): 642.2 x10_4/ul
- Ret ([…], time 7 day): 5.8%
- WBC ([…], time 7 day): 127.1 x10_2/uL
- APTT ([…], time 14 day): 22.1 s
- Bas ([…], time 14 day): 0%
- Eos ([…], time 14 day): 0.8%
- Fbg ([…], time 14 day): 217.4 mg/dL
- Hb ([…], time 14 day): 14 g/dL
- Ht ([…], time 14 day): 41.6%
- Lym ([…], time 14 day): 80.2%
- MCH ([…], time 14 day): 20.1 pg
- MCHC ([…], time 14 day): 33.6%
- MCV ([…], time 14 day): 59.6 fL
- Mono ([…], time 14 day): 3.2%
- Neu ([…], time 14 day): 16%
- PT ([…], time 14 day): 12.2 s
- Plat ([…], time 14 day): 113 x10_4/uL
- RBC ([…], time 14 day): 699 x10_4/ul
- Ret ([…], time 14 day): 4%
- WBC ([…], time 14 day): 110.8 x10_2/uL
- APTT ([…], time 28 day): 20.8 s
- Bas ([…], time 28 day): 0%
- Eos ([…], time 28 day): 0.6%
- Fbg ([…], time 28 day): 209.4 mg/dL
- Hb ([…], time 28 day): 14.7 g/dL
- Ht ([…], time 28 day): 42.8%
- Lym ([…], time 28 day): 78.4%
- MCH ([…], time 28 day): 18.3 pg
- MCHC ([…], time 28 day): 34.3%
- MCV ([…], time 28 day): 53.4 fL
- Mono ([…], time 28 day): 3.8%
- Neu ([…], time 28 day): 16.8%
- PT ([…], time 28 day): 12.5 s
- Plat ([…], time 28 day): 111.2 x10_4/uL
- RBC ([…], time 28 day): 801.8 x10_4/ul
- Ret ([…], time 28 day): 3%
- WBC ([…], time 28 day): 148.3 x10_2/uL
- KIDNEY_L ([…], time 7 day): 1.1 g
- KIDNEY_R ([…], time 7 day): 1.1 g
- KIDNEY_TOTAL ([…], time 7 day): 2.2 g
- KIDNEY_L ([…], time 14 day): 1.1 g
- KIDNEY_R ([…], time 14 day): 1.2 g
- KIDNEY_TOTAL ([…], time 14 day): 2.3 g
- KIDNEY_L ([…], time 28 day): 1.3 g
- KIDNEY_R ([…], time 28 day): 1.3 g
- KIDNEY_TOTAL ([…], time 28 day): 2.6 g
- LIVER ([…], time 7 day): 13.2 g
- LIVER ([…], time 14 day): 15.1 g
- LIVER ([…], time 28 day): 18.2 g
- A/G ([…], time 7 day): 1.4
- ALP ([…], time 7 day): 942.6 IU/L
- ALT ([…], time 7 day): 53.4 IU/L
- AST ([…], time 7 day): 113.4 IU/L
- BUN ([…], time 7 day): 15.4 mg/dL
- CRE ([…], time 7 day): 0.4 mg/dL
- Ca ([…], time 7 day): 10.6 mg/dL
- Cl ([…], time 7 day): 104.4 meq/L
- DBIL ([…], time 7 day): 0.074 mg/dL
- GLC ([…], time 7 day): 193.8 mg/dL
- IP ([…], time 7 day): 7.6 mg/dL
- K ([…], time 7 day): 4 meq/L
- LDH ([…], time 7 day): 231.2 IU/L
- Na ([…], time 7 day): 141 meq/L
- PL ([…], time 7 day): 142.8 mg/dL
- RALB ([…], time 7 day): 3.2 g/dL
- TBIL ([…], time 7 day): 0.1 mg/dL
- TC ([…], time 7 day): 63.4 mg/dL
- TG ([…], time 7 day): 62.6 mg/dL
- TP ([…], time 7 day): 5.5 g/dL
- gamma-GTP ([…], time 7 day): 1.4 IU/L
- A/G ([…], time 14 day): 1.6
- ALP ([…], time 14 day): 1040.6 IU/L
- ALT ([…], time 14 day): 106 IU/L
- AST ([…], time 14 day): 165.4 IU/L
- BUN ([…], time 14 day): 15.2 mg/dL
- CRE ([…], time 14 day): 0.4 mg/dL
- Ca ([…], time 14 day): 10.7 mg/dL
- Cl ([…], time 14 day): 104 meq/L
- DBIL ([…], time 14 day): 0.06 mg/dL
- GLC ([…], time 14 day): 184.2 mg/dL
- IP ([…], time 14 day): 7.6 mg/dL
- K ([…], time 14 day): 3.8 meq/L
- LDH ([…], time 14 day): 281.4 IU/L
- Na ([…], time 14 day): 142 meq/L
- PL ([…], time 14 day): 131.2 mg/dL
- RALB ([…], time 14 day): 3.5 g/dL
- TBIL ([…], time 14 day): 0.1 mg/dL
- TC ([…], time 14 day): 64.4 mg/dL
- TG ([…], time 14 day): 38.8 mg/dL
- TP ([…], time 14 day): 5.7 g/dL
- gamma-GTP ([…], time 14 day): 0.8 IU/L
- A/G ([…], time 28 day): 1.4
- ALP ([…], time 28 day): 760.2 IU/L
- ALT ([…], time 28 day): 103.2 IU/L
- AST ([…], time 28 day): 131 IU/L
- BUN ([…], time 28 day): 16 mg/dL
- CRE ([…], time 28 day): 0.5 mg/dL
- Ca ([…], time 28 day): 10.3 mg/dL
- Cl ([…], time 28 day): 102.6 meq/L
- DBIL ([…], time 28 day): 0.072 mg/dL
- GLC ([…], time 28 day): 203.6 mg/dL
- IP ([…], time 28 day): 6.8 mg/dL
- K ([…], time 28 day): 3.8 meq/L
- LDH ([…], time 28 day): 390 IU/L
- Na ([…], time 28 day): 140.8 meq/L
- PL ([…], time 28 day): 122.8 mg/dL
- RALB ([…], time 28 day): 3.4 g/dL
- TBIL ([…], time 28 day): 0.1 mg/dL
- TC ([…], time 28 day): 57 mg/dL
- TG ([…], time 28 day): 32.2 mg/dL
- TP ([…], time 28 day): 5.9 g/dL
- gamma-GTP ([…], time 28 day): 1.2 IU/L
